# Test results reported in patent publication US20200352918A1, “COMPOUNDS AND METHODS FOR TREATING OR PREVENTING FIBROSIS” (priority 2019, published 2020).
# Legend:
# SSEA4+ cells = assay: FACS of SSEA4+ cells in the iFA model; assay type: cell-based, human; conditions: AA5 treatment
# Method: For determination of various cell populations in the iFA model, the cells were dissociated using Accumax (Stem Cell Technologies) for 5 minutes, pelleted and resuspended in FACS buffer (3% Fetal Bovine Serum/PBS). 1×10^6 cells were incubated with a the appropriate conjugated antibody listed in Table 3 for 20 minutes at 4° C. under shaking conditions. The cells were washed with the FACS buffer and acquired using a flow cytometer (BD LSRII) and analysed using FACS Diva and FlowJo softwares.
# iFA model = assay: Fibrotic marker, cytokine and repair modulator expression in the iFA model (qPCR, immunoblotting, luminex, immunofluorescence); assay type: cell-based, human
# Method: The Milliplex human cytokine/chemokine Panel IV, human TIMP Panel 2, and human TGFβ 1,2,3 magnetic bead kits (EMD Millipore) were used per manufacturer's instructions. Prior to plating, all samples tested for human TGFβ only were activated and neutralized with 1.0 N HCl and 1.0 N NaOH, respectively. Briefly, 25 μl of undiluted or treated cell culture supernatant samples were mixed with 25 μl of magnetic beads and allowed to incubate overnight at 4° C. while shaking. After washing the plates with wash buffer in a Biotek ELx405 washer, 25 μl of biotinylated detection antibody was added and incubated for 1 hour at room temperature while shaking. 25 μl of streptavidin-phycoerythrin conjugate was then added to the reaction mixture and incubated for another 30 minutes at room temperature while shaking. Following additional washes, beads were resuspended in sheath fluid, and fluorescence was quantified using a Luminex 200 instrument. Similarly, a custom magnetic Luminex assay kit of select analytes (R&D Systems) was used per manufacturer's instructions. Cell culture supernatants were prepared with a 2-fold dilution. 50 μl of diluted sample were added to 50 μl of provided micro-particle cocktail and incubated for 2 hours at room temperature while shaking. After washing with wash buffer, 50 μl of biotin antibody cocktail was added and incubated for 1 hour at room temperature while shaking. Following additional washes, 50 μl of diluted Streptavidin-PE was then added for incubation for 30 minutes at room temperature while shaking. The plate was then washed again and the micro-particles resuspended in 100 μl wash buffer. After an additional 2-minute incubation while shaking, the data was acquired using a Luminex 200 instrument.
# In-vitro cultures of PF and cells in the iFA model were washed once with PBS and total RNA from the samples were extracted using the RNeasy Mini Kit (Qiagen) according to the manufacturer's instructions. For the lung slice cultures (LSC), tissues were snap-frozen after treatment and stored at −80° C. until RNA isolation. Lung slices were homogenized using a handheld homogenizer and passing the homogenate through a Qiashredder (Qiagen). Total RNA from the LSC and cells from the disease model were extracted using the RNeasy Mini Kit (Qiagen) according to the manufacturer's instructions. The RNA concentrations were measured on a NanoDrop ND-1000 spectrophotometer. Single-stranded cDNA was synthesized from 200 ng of total RNA using Superscript IV and random hexamer primers (Invitrogen) in a volume of 20 μl. cDNA was then used for qRT-PCR analysis. PCR reactions were performed using Taqman Gene Expression Assay mix (Applied Biosystems) according to the manufacturer's instructions.
# qRT-PCR reactions were performed using the StepOnePlus (Applied Biosystems). Relative gene expression was calculated using the 2^−ΔΔCt method, with 18S Cat. #4331182 (Invitrogen) as housekeeping gene. For the RT^2qPCR arrays, cDNA from DMSO and AA5 treated iFA and was added to the RT^2 qPCR iTaq Universal SYBR green Master Mix (Biorad). 20 μl of the experimental cocktail was added to each well of the Fibrosis PCR (Qiagen). Real-Time PCR was performed on the StepOnePlus qPCR system (Applied Biosystems) using SYBR green detection according to the manufacturer's recommendations. All data from the PCR was collected and analyzed by SA Bioscience's PCR Array Data Analysis Web Portal.
# Cells grown on coverslips were fixed in 4% paraformaldehyde (PFA) for 10 min at room temperature and washed three times with TBS buffer supplemented with 0.1% Tween 20 (TBST). Lung samples were fixed overnight in 4% PFA at room temperature, washed 3 times in PBS, dehydrated and then infiltrated and embedded with wax. Five-micron sections were collected on glass slides, deparaffinized and rehydrated. Heat-induced epitope retrieval was performed using 1 mM EDTA in a microwave. […]
smiles,measurement,setting,value
Cc1c(C(=O)Nc2nc3ccccc3s2)sc2nc3cc4c(cc3cc12)OCO4 [AA5],Percentages of SSEA4+ cells,SSEA4+ cells,attenuated
same,"Secreted levels of acute-phase response cytokines IL-6, IL-8 and IFNα","iFA model; AA5-prevention and AA5-resolution, luminex",increase
same,PTX3 protein,"iFA model; AA5-prevention and AA5-resolution, over time",progressively increasing amounts
same,"Acute-phase signaling secondary cytokines MCP-3, VEGF, CSF3 and GRO",iFA model; AA5 treated iFA model,increase
same,"Gene expression of fibrotic markers α-SMA, Collagen I, TIMP-3 and POSTN","iFA model; AA5 treatment, confirmed by immunoblotting, luminex, immunofluorescence",down-regulation
same,Modulators of tissue repair PTX3 and CD163L1,iFA model; within 24 hours of AA5-resolution treatment,upregulation
